Results taken from US20140086977A1, “TIGHT JUNCTIONS MODULATORS” (THE UNIVERSITY OF MANCHESTER, priority 2011, published 2014).
Entries after “also recorded” stand apart in the source; their conditions may differ.

Key:
[1] = test system: Normal human epidermal keratinocytes (NHEK); assay: TEER in NHEK treated with plant polyphenols; type: cell-based; conditions: for Effect on TEER at day four vs untreated control: 100 μM myricetin or Kaempferol, quercetin concentration not stated, Mann Whitney U test
Description: Normal human epidermal keratinocytes (NHEK) were purchased from Promocell (Heidelberg, Germany) and grown on Thincerts™ in proprietary medium containing 0.06 mM calcium chloride. ‘Thincerts’ are small chambers containing a filter on which the cells are grown. The Thincert™ is housed within a conventional 12 well tissue culture plate. This arrangement allows treatment of the cells from either the basal or apical side.
When the cells were confluent, the medium was replaced with new medium but containing 1.8 mM calcium chloride. This induces tight junction formation in NHEK. In experiments where plant polyphenols were tested, a known volume of the plant polyphenol (dissolved in vehicle at a known concentration) was added to both apical and basal chambers of the Thincert™ at the same time as the medium was replaced. In this experiment the plant polyphenols quercetin, Myricetin and Kaempferol were tested.
Tight junctions form over 4 days and this was monitored by measuring the transepithelial electrical resistance (TEER) using an EVOM (world precision instruments). TEER was measured every 24 hours post addition of the test polyphenols and the TEER of control untreated cell monolayers was compared to that of treated cell monolayers.
The methodology set out in Example 6 was repeated, using quercetin at different concentrations. The results are shown in FIG. 8 in which the first bar represents the results for control—untreated cells, the second bar represents the results for cells treated with 100 μM quercetin and the third bar represents the results for cells treated with 10 μM quercetin (see key below). The y-axis represents TEER at 4 days (Ohms.cm^2).

[2] = test system: Normal primary human keratinocytes (NHEK); assay: Transepithelial electrical resistance (TEER) in NHEK after calcium switch, UCA isomers; type: cell-based; conditions: for Effect on TEER: differentiated NHEK vs untreated cells
Source text: Transepithelial electrical resistance (TEER) measurements are used in epithelial biology as a marker of TJ integrity. Electrical resistance is a measure of how easily ions can pass through a particular transport route. The higher the resistance the harder it is for ions to pass. Whilst the TEER of a cell monolayer is a function of both transcellular and paracellular transport routes, the value of TEER is, however, dominated by the contribution from the paracellular route. TEER of monolayers can be measured using an Epithelial Voltmeter (for example EVOM from WPI Ltd). This instrument passes a current across a monolayer of cells and calculates the resistance according to Ohm's law (V=IR, where V is potential difference, I is current and R is resistance). Therefore increased TEER means […] TJ function. Preferably TEER measurements are carried out at room temperature.
Normal primary human keratinocytes (NHEK) were grown on Thincerts™ in medium containing 0.6 mM calcium until the cells were confluent. TJ formation was the induced by calcium switch and 25 ug/ml cis-UCA was added to the cells which were incubated for 96 hours and the transepithelial electrical resistance (TEER) measured every 24 hours post calcium switch.
(§1) Exposure of human skin to solar simulated ultraviolet radiation (UVR) transiently impairs skin barrier function (SBF) which recovers over a period of 2-14 days. […] Trans-urocanic acid (trans-UCA) is a major epidermal chromophore located in the stratum corneum and exposure of human skin to UVR photoisomerises trans-UCA to cis-UCA. In a previous Affymetrix study, the Cld-1 encoding gene, CLDN1, was listed as one of several markers induced by cis- but not trans-UCA, in normal human epidermal keratinocytes (NHEK) (Kaneko et al, J Immunol 2008, 181, 217-24). We therefore examined UCA isomer-dependent changes in Cld-1 protein expression (assessed by immunoblotting) and TJ function (assessed as transepithelial electrical resistance; TEER) in differentiated NHEK in vitro.

claudin 1 = assay: Claudin 1 protein levels in NHEK by immunoblot; type: cell-based, human; conditions: for Effect on claudin 1 protein levels: 24-96 hours post treatment, immunoblot
Description: Normal primary human keratinocytes (NHEK) were grown in proprietary medium containing 0.6 mM calcium chloride. When the cells reached confluence they were placed in medium containing 1.8 mM calcium chloride (calcium switch) and either cis-UCA, irradiated trans-UCA, unirradiated trans-UCA or control medium. Cells were the incubated for 96 hours during which time TJs form. At 24, 48, 72 or 96 hours post treatment, cells were harvested and claudin 1 levels analysed by immunoblot.
NHEK (growing as described above) were treated with different concentrations of cis-UCA for 48 hours after which claudin 1 levels were examined using immunoblotting.
as §1

[3] = test system: claudins 1 and 4, occludin and ZO-1 mRNA; assay: Real-time PCR of TJ gene message levels in NHEK; type: cell-based, human; conditions: 25 ug/ml, 48 hours, vs non-treated keratinocytes
Description: Normal primary human keratinocytes (NHEK) were grown in proprietary medium containing 0.6 mM calcium chloride. When the cells reached confluence they were placed in medium containing […] calcium chloride (calcium switch) and 25 ug/ml cis-UCA was added. Cells were incubated for 48 hours and message levels for the TJ genes claudins 1 and 4, occludin and ZO-1 were quantified using real-time PCR using non-treated keratinocytes as a control (FIG. 3).

## O=c1c(O)c(-c2ccc(O)c(O)c2)oc2cc(O)cc(O)c12 [quercetin]
[1]
  Effect on TEER at day four vs untreated control: significantly increase
[1]; 100 μM vs 10 μM quercetin
  Dose dependence of TEER at 4 days: higher quantities of quercetin have a more beneficial effect

## O=C(O)/C=C/c1cnc[nH]1 [trans-UCA, trans-urocanic acid, reference compound]
[2]
  Effect on TEER: no effect
Claudin 1
  Effect on claudin 1 protein levels: no effect
Claudin 1; listed as unirradiated trans-UCA
  Effect on claudin 1 protein levels: does not; also recorded: no effect

## O=c1c(O)c(-c2cc(O)c(O)c(O)c2)oc2cc(O)cc(O)c12 [Myricetin]
[1]
  Effect on TEER at day four vs untreated control: significantly increase

## O=c1c(O)c(-c2ccc(O)cc2)oc2cc(O)cc(O)c12 [Kaempferol]
[1]; 100 μM
  Time to barrier formation: reduces
[1]
  Effect on TEER at day four vs untreated control: increases

## O=C(O)/C=C\c1c[nH]cn1 [cis-UCA, cis-urocanic acid]
[3]
  Levels of mRNA for claudins 1, 4, occludin and ZO-1: increases
[2]; 25 ug/ml cis-UCA, up to 96 hours post calcium switch
  TEER higher than in untreated cells: approximately 150 ohms.cm^2
[2]
  Effect on TEER: higher
[2]; differentiated NHEK, n=6, p=0.004
  TEER higher than in untreated cells: ~150 ohms/cm^2
Claudin 1
  Effect on claudin 1 protein levels: time dependent increase
Claudin 1; listed as Cis-UCA
  Effect on claudin 1 protein levels: time and concentration dependent increase
Claudin 1; 48 hours, greatest at 25 ug/ml
  Dose dependence of claudin 1 protein levels: dose dependent increase
Claudin 1; maximal 48 h post-treatment with 25 μg/ml, n=4, p=0.02
  Increase in Cld-1 protein: ~3 fold
